Data published in ChEMBL document CHEMBL1153642, “Induction of apoptosis in HuH-7 cancer cells by monoterpene and beta-carboline indole alkaloids isolated from the leaves of Tabernaemontana elegans” (2009).
Active and inactive are the calls of the source. No cut-off for these calls is given here.

Tests used:
[1] = test system: Huh-7; assay: Induction of apoptosis in human HuH7 cells assessed as cell death after 24 hrs by trypan blue dye exclusion assay; format: functional, cell-based
[2] = test system: Huh-7; assay: Induction of apoptosis in human HuH7 cells assessed as change in nuclear morphology after 48 hrs using Hoechst staining; format: functional
[3] = test system: Huh-7; assay: Induction of apoptosis in human HuH7 cells assessed as change in nuclear morphology after 72 hrs using Hoechst staining; format: functional
[4] = test system: Huh-7; assay: Induction of apoptosis in human HuH7 cells assessed as change in nuclear morphology after 24 hrs using Hoechst staining; format: functional
[5] = test system: Huh-7; assay: Induction of apoptosis in human HuH7 cells assessed as increase in caspase-3 activity after 12 hrs; format: functional, cell-based
[6] = test system: Huh-7; assay: Induction of necrosis in human HuH7 cells; format: functional, cell-based

With `Cc1cc2c([nH]c3ccccc32)c2[n+]1C(C)NCC2` (configuration not stated) the Activity [1] was “Active”.
`Cc1cc2c3ccccc3n3c2c(n1)CCNC3C` (configuration not stated) was tested, and the Activity [1] was “Active”.
In the case of `CC[C@@H]1CN(C)[C@H]2Cc3c([nH]c4ccccc34)C(=O)C[C@@H]1[C@H]2C(=O)OC` [TABERNAEMONTANINE], the Activity [2] was <25%, the Activity [3] was <25% and the Activity [4] was 40%. For the same compound, the Activity [5] was “Active” and the inhibition [6] was “inactive”.
In the case of `C/C=C1/CN(C)[C@H]2Cc3c([nH]c4ccccc34)C(=O)C[C@H]1[C@@H]2C(=O)OC` [VOBASINE], the Activity [2] was <25%, the Activity [3] was <25% and the Activity [4] was 40%. For the same compound, the Activity [5] was “Active” and the inhibition [6] was “inactive”.
